Experimental data published in patent US20220235014A1, “PROCESS FOR THE PREPARATION OF HIGHLY PURE ERLOTINIB HYDROCHLORIDE” (SHIVALIK RASAYAN LIMITED, priority 2021, published 2022).
Like-named read-outs stand apart in the source and are kept apart here.

[1] = 1M storage, table does not say which condition (30° C./65% or 40° C./75% RH)
[2] = 2M storage, table does not say which condition (30° C./65% or 40° C./75% RH)
[3] = 3M storage, table does not say which condition (30° C./65% or 40° C./75% RH)
[4] = 6M storage, table does not say which condition (30° C./65% or 40° C./75% RH)
[5] = 9M storage, table does not say which condition (30° C./65% or 40° C./75% RH)

C#Cc1cccc(Nc2ncnc3cc(OCCOC)c(OCCOC)cc23)c1.Cl [Form SEA, N-(3-ethynylphenyl)-6,7-bis (2-methoxy ethoxy)-4-quinazolinamine hydrochloride]
Assay (by HPLC; on anhydrous basis) [1]: 99.19% w/w
Moisture Content (by KF method) [1]: 0.24% w/w
Assay (by HPLC; on anhydrous basis) [2]: 101.56% w/w
Moisture Content (by KF method) [2]: 0.26% w/w
Assay (by HPLC; on anhydrous basis) [3]: 101.41% w/w
Moisture Content (by KF method) [3]: 0.21% w/w
Assay (by HPLC; on anhydrous basis) [4]: 99.99% w/w
Moisture Content (by KF method) [4]: 0.17% w/w
Assay (by HPLC; on anhydrous basis) [5]: 100.40% w/w
Moisture Content (by KF method) [5]: 0.42% w/w
HPLC purity after 9 months stability (9 months): exceeding 99.8 % w/w by HPLC
Assay (by HPLC; on anhydrous basis) (Initial, limit >99.8%): 100.84% w/w
Moisture Content (by KF method) (Initial, limit not more than 0.5% w/w): 0.17% w/w
time over which the crystalline form was stable under storage (storage at 30° C./65±5%): up to 12 months
time over which the crystalline form was stable under storage (storage at 40° C./75±5%): up to 12 months
